Series [1] relates to HIV-1. Set-up: method as in PMID 21115794. The following applies: cited from earlier work.
The nature of series [2]: Aqueous solubility (excess drug in water, room temperature, overnight, UPLC). It is filed as physicochemical. Here is the method: (§1) A lipophilic and hydrophobic modified DTG prodrug (called MDTG) was synthesized through myristoylation of the parent drug hydroxyl group. Initially, DTG was dried by co-evaporation from anhydrous pyridine then resuspended in anhydrous DMF and cooled to 0 °C under argon. 2-equivalents DIEA were used to deprotonate the 7-hydroxyl group of DTG, which was then immediately reacted with 2 equivalents myristoyl chloride for 24 h. The resultant product was purified by silica gel column chromatography using an initial mobile phase of 4:1 ethyl acetate: hexanes for 12 fractions, then 9:1 ethyl acetate: hexanes for the remainder. […] ESI-MS specifics (m/z): calculated for C34H45F2N3O6, 629.33 (100%), 630.33 (36.8%), 631.33 (3.9%); found, 630.30. […] The aqueous solubility of DTG and MDTG was evaluated by adding excess drug to water at room temperature then mixing it overnight. […] Solubilized drug in the supernatant was extracted in methanol and measured using a Waters ACQUITY ultra performance liquid chromatography (UPLC) H-Class System with TUV detector and Empower 3 software (Milford, MA). For DTG and MDTG quantitation, drug extracts were separated on a Phenomenex Kinetex 5 μm C18 column (150 × 4.6 mm) (Torrance, CA) using either 65% 50 mM KH2PO4, pH 3.2/35% ACN (DTG) or 90% ACN/10% water (MDTG) with a flow rate of 1.0 mL/min and detected at 254 nm and 230 nm, respectively. […]

Series [3] in a line: Ex vivo cleavage kinetics of MDTG in mouse whole blood. The following applies: after 60 min. It is filed as in vitro ADME. The method, then:
as §1, with “remainder. Once purified, fractions containing the UV active prodrug were dried and precipitated from diethyl ether. The precipitate was collected by centrifugation at 3500 r.p.m. for 15 min and dried under vacuum, while the supernatant was discarded. MDTG was synthesized at a final drug yield of 82.8%. Proton nuclear magnetic resonance (^1H NMR), carbon nuclear magnetic resonance (^13C NMR), and Fourier-transform infrared (FTIR) spectroscopy, positive electrospray ionization mass spectroscopy (ESI-MS), and powder X-ray diffraction (XRD) were used to characterize the structure of MDTG.” for “remainder.”, “respectively. Drug content was quantitated by comparison of peak area to those of known standards (0.05–50 µg/mL). Ex vivo cleavage kinetics of MDTG was assessed in mouse whole blood.” for “respectively.”

`C[C@@H]1CCO[C@H]2Cn3cc(C(=O)NCc4ccc(F)cc4F)c(=O)c(O)c3C(=O)N12` [DTG, dolutegravir]: in series [1], the “protein-adjusted inhibitory concentration90 (PA-IC90)” value is 0.064 µg/mL.

`CCCCCCCCCCCCCC(=O)Oc1c2n(cc(C(=O)NCc3ccc(F)cc3F)c1=O)C[C@@H]1OCC[C@@H](C)N1C2=O` [MDTG]: in series [2], the “decrease in aqueous solubility compared to DTG” value was found to be 8.7 fold. For the same molecule, the MDTG cleaved turned out to be 21.9% in series [3] (after acetonitrile (ACN) addition) and 79.9% in series [3] (whole blood, room temperature). For the same molecule, the MDTG hydrolyzed in series [3] (blood diluted ten-fold) was determined as 88.7%; in series [3] (blood spiked with an esterase inhibitor) it was 15.2%.

Source of the values: PMC5799307, “Creation of a long-acting nanoformulated dolutegravir” (Nature Communications, 2018).
